Values of other authors as cited in US20100239665A1 (priority 2007, published 2010).

solubility in water: practically insoluble in water
Structure (SMILES): COCCOC(=O)C1=C(C)NC(C)=C(C(=O)OC(C)C)C1c1cccc([N+](=O)[O-])c1 (stereo not shown) [Nimodipine]
